Patent US8772463B2, “Fluorescent dye-labeled glucose bioprobe, synthesis method and usage thereof” (SNU R&DB Foundation, priority 2007, dated 2014)

Legend:
A549 cells [1] = assay: Fluorescence imaging analysis of competitive probe uptake; assay type: cell-based, human; conditions: probe 12.5 μM
Experimental: Also, NIH/3T3, A549, C2C12 and 3T3/L1 cells, each having a population of 4×10^4 cells, were cultured on 35 mm cell culture dishes (BD Falcon™ Cell Culture Dish; BD Bioscience, CA, USA). Two days later, the cell culture medium was replaced with a glucose-depleted medium (DMEM, glucose free, GIBCO) supplemented with 0 mM, 11 mM or 55 mM D-glucose and 10 μM GB2-Cy3. After incubation at 37° C. for 30 min, the cells on the cover slips in the 35-mm cell culture dishes were washed twice with cold PBS and the cover slips were mounted on the caster of a fluorescence microscope (Olympus IX71). During observation under the fluorescence microscope, the cells were maintained at 37° C. in the chamber. Fluorescence images of 35-50 cells were taken by CCD camera (Axiocam MRm, Germany) and each cell was measured for fluorescence intensity using the image data analysis program Image-Pro® Plus (MediaCybernetics, USA). As ROIs (regions of interest), areas which encompassed cells within phase-contrast images were drawn using Image-Pro® Plus. Image-Pro® Plus analyzed CCD camera images to produce the digitized mean of fluorescence intensity within the ROIs that the present inventors had established. The background intensity was subtracted from the detected fluorescence intensity to give the fluorescence intensity value that a cell contained. In this manner, the fluorescence intensity was digitized for performing various experiments.
NIH/3T3 and A549 cells were cultured on microscope cover glasses in 35 mm cell culture dishes and subjected to fluorescence imaging analysis according to the protocol.

A549 cells [2] = assay: Probe uptake by A549 cells, inverted fluorescent microscope (α/β anomers, alanine, 2-NBDG comparison); assay type: cell-based, human
Experimental: 1×10^4 cells were cultured on a Lab-Tek glass chamber slide (Nalge Nunc International, Naperville, Ind., USA) in 35 mm cell culture dish. After 24 h, the cells were treated for each experimental purpose. Then, the medium was replaced with RPMI 1640 medium containing 12.5 μM of Cy3-Glc-α. The cells were exposed to Cy3-Glc-α for 40 min, then washed with PBS 3 times. Finally, the glass chamber slide was taken from culture dish and loaded on the fluorescence microscope (Axiovert 200, Carl Zeiss, Germany). Fluorescence images of 35-50 cells were taken by CCD camera (Axiocam MRm, Germany) and fluorescence intensity of each cell was measured by Axiovision (program for data analysis). An area as ROIs (regions of interest) which contains a cell in phase-contrast image was drawn using Axiovision. Axiovision analyzed CCD camera images and provided the digitized mean of fluorescence intensity in the ROIs that the present inventors had established. The present inventors subtracted the background intensity from the fluorescence intensity to get the fluorescence intensity value that a cell contained. With the method described above, the present inventors digitized fluorescence intensity and performed various experiments.
To confirm the above hypothesis, real-time uptake of Cy3-Glc-α was measured, and the results were compared to those of Cy3-Glc-β by live imaging of A549 cells by using inverted fluorescent microscope. […] This led the present inventors to the conclusion that the stereochemistry at the C-1 anomeric position definitely influences the efficiency of mimicking glucose, and this might be due to the binding orientation of D-glucose in GLUTs [P. W. Hruz, M. M. Mueckler, Mole. Memb. Biol. 2001, 18, 183-193].
The cellular uptake of 2-NBDG was not detected under identical experimental conditions used for Cy3-Glc-α. […] To achieve the fluorescence intensity with 2-NBDG to 80% that of Cy3-Glc-α, a 10 fold increase in 2-NBDG concentration and a 20 fold increase in the lens exposure time in D-glucose-depleted medium were needed.
In addition, the cellular uptake of 2-NBDG in normal media (containing 10 mM D-glucose) was extremely low (>60% uptake reduction in normal media) and was hardly detected using fluorescent based imaging methods [R. G. O'Neil, L. Wu, N. Mullani, Mol. Imaging Biol. 2005, 7, 388-392]. 2-NBDG was detectable only in glucose-depleted media, and this means a critical limitation of bioapplication of 2-NBDG in the biologically significant environments. In comparison with 2-NBDG, the reduction of Cy3-Glc-α uptake in glucose-containing media was only 5% compared to that in glucose-depleted media (FIG. 18). Therefore, it was confirmed that Cy3-Glc-α was capable of being applied to a bioassay system regardless of glucose starvation.

## C[N+]1=C(/C=C/C=C2/N(CCCCC(=O)NCCOCCOCCNCCOC3OC(CO)C(O)C(O)C3O)c3ccccc3C2(C)C)C(C)(C)c2ccccc21 [Cy3-Glc-α, [2-(N-Cy3-3,6-dioxaoctane-1,8-diaminoethyl)]-α-D-glucose]
A549 cells [1]
  cellular uptake versus D-glucose concentration: decreased in the cellular uptake of the glucose analogues in D-glucose dose-dependent manners
  change in the fluorescent intensity of ROIs when D-glucose changed from 10 mM to 55 mM: approximately 5%
  fluorescent intensity of treated cells, GB2-Cy3 normalized to 100: 4
A549 cells [2]; 55 mM alanine in media
  uptake efficiency with or without alanine (osmotic pressure): no difference in the uptake efficiency
A549 cells [2]; A549 cells
  reduction of uptake in glucose-containing media compared to glucose-depleted media: 5%
A549 cells [2]; A549 cells, live imaging
  uptake of Cy3-Glc-α superior to that of Cy3-Glc-β: 40%
